# “Also recorded” adds a separate entry of the source.
# Assays:
# GCP cells = assay: Clonogenicity / long-term propagation of GCP neurosphere cultures; assay type: cell-based, mouse
# Procedure: (§1) After surgical resection from a mouse on the seventh day of postnatal life (P7) the cerebellum was mechanically shredded in a buffer containing HBSS, glucose and antibiotics, and DNase (at concentrations as defined above) and the individual cells thus obtained were counted and plated at a dilution of 16000 cells/cm^2 on a medium composed of DMEM-F12, glucose, Vitamin A-free B27, insulin, NALC, heparin, antibiotics (at concentrations as defined above) and SAG (200 nM) and EGF ([…]). On this medium the cells can be enriched and maintained for an unlimited time, after periodical dissociation of the spheres with Accutase® (2-3 times per week) and propagation by dilution (to prevent excessive growth and consequent death from nutrient deficiency and hypoxia). The reaction conditions were as described above.
# Shh pathway = Shh pathway expression (Gli1, N-Myc; Western Blot, real time Q-PCR) in GCP neurosphere cultures; assay type: cell-based, mouse; details: Western Blot, neurospheres under different culture conditions; SAG 200 nM, EGF 1 μM
# Procedure: as §1
smiles,measurement,setting,value
CNC1CCC(N(Cc2cccc(-c3ccncc3)c2)C(=O)c2sc3ccccc3c2Cl)CC1 (stereo not drawn) [SAG],long-term survival of the culture,GCP cells; factor alone,does not ensure long-term survival of the culture
same,clonogenic power (average spheres) over time,GCP cells; several weeks after being grown,undergoes progressive decline
same,"expression of molecular biomarkers of the Shh pathway, Gli1 and N-Myc",Shh pathway,active; also recorded: maintains a high expression of the Shh pathway
